# Several values for one entry are separate records, joined by “and”; a condition that tells them apart may be missing. Identical values can stand only once. Like-named read-outs stand apart in the source and are kept apart here.
# Assays:
# [1] = test system: Bz BS of GABA(A) receptors; conditions: cited from earlier work
# α2β3γ2 GABAA/BzR [2] = target: T1, α2β3γ2 GABAA/BzR (Homo sapiens, UniProt P18507+P47869); design: expressed in transfected cells; host or cells: LTK cells (given for XLi-093 only); conditions: cited from earlier work
# α4β3γ2 GABAA/BzR [3] = target: T2, α4β3γ2 GABAA/BzR (Homo sapiens, UniProt P18507+P48169); test: biochemical; format: binding
# T2 construct: expressed in transfected cells; host or cells: LTK cells (given for XLi-093 only)
# α6β3γ2 GABAA/BzR [4] = target: T3, α6β3γ2 GABAA/BzR (Homo sapiens, UniProt P18507+Q16445); design: expressed in transfected cells; host or cells: LTK cells (given for XLi-093 only); conditions: cited from earlier work
# α5β3γ2 GABAA/BzR [5] = target: T4, α5β3γ2 GABAA/BzR (Homo sapiens, UniProt P18507+P31644); test: Competition binding to HEK cell membranes, α5β3γ2; design: expressed in transfected cells
# α4β3γ2 GABAA/BzR [6] = target: T2, α4β3γ2 GABAA/BzR; conditions: cited from earlier work
# α1β3γ2 GABAA/BzR [7] = target: T5, α1β3γ2 GABAA/BzR (Homo sapiens, UniProt P14867+P18507); design: expressed in transfected cells; host or cells: LTK cells (given for XLi-093 only); conditions: cited from earlier work
# α3β3γ2 GABAA/BzR [8] = target: T6, α3β3γ2 GABAA/BzR (Homo sapiens, UniProt P18507+P34903); test: Competition binding to HEK cell membranes, α3β3γ2; design: expressed in transfected cells
# α6β3γ2 GABAA/BzR [9] = target: T3, α6β3γ2 GABAA/BzR; test: Competition binding to HEK cell membranes, α6β3γ2; design: expressed in transfected cells
# α2β3γ2 GABAA/BzR [10] = target: T1, α2β3γ2 GABAA/BzR; test: Competition binding to HEK cell membranes, α2β3γ2; design: expressed in transfected cells
# α3β3γ2 GABAA/BzR [11] = target: T6, α3β3γ2 GABAA/BzR; design: expressed in transfected cells; host or cells: LTK cells (given for XLi-093 only); conditions: cited from earlier work
# α1β3γ2 GABAA/BzR [12] = target: T5, α1β3γ2 GABAA/BzR; test: Competition binding to HEK cell membranes, α1β3γ2; design: expressed in transfected cells
# α5β3γ2 GABAA/BzR [13] = target: T4, α5β3γ2 GABAA/BzR; design: expressed in transfected cells; host or cells: LTK cells (given for XLi-093 only); conditions: cited from earlier work
compound,measurement,setting,value
CN1C(=O)CN=C(c2ccccc2)c2cc(Cl)ccc21 [diazepam],modulation,[1],agonist
Cc1ncc2n1-c1ccc(Cl)cc1C(c1ccccc1F)=NC2 [midazolam],modulation,[1]; Supplement Table 1,agonist
CCOC(=O)c1ncn2c1CN=C(c1ccccc1)c1cc(-c3ccccc3)ccc1-2 [DM-I-81 (9)],Ki,"α2β3γ2 GABAA/BzR [2]; Figure 4, read-out: Ki α2",> 2000 nM
same,Ki,"α4β3γ2 GABAA/BzR [3]; Figure 17, read-out: Binding data Ki α4",> 2000 nM
same,Ki,"α6β3γ2 GABAA/BzR [4]; Figure 4, read-out: Ki α6",> 2000 nM
same,Ki,"α5β3γ2 GABAA/BzR [5]; Figure 17, read-out: Binding data Ki α5",176 nM
same,Ki,"α4β3γ2 GABAA/BzR [6]; Figure 4, read-out: Ki α4",> 2000 nM
same,Ki,"α1β3γ2 GABAA/BzR [7]; Figure 4, read-out: Ki α1",> 2000 nM
same,Ki,"α3β3γ2 GABAA/BzR [8]; Figure 17, read-out: Binding data Ki α3",> 2000 nM
same,Ki,"α6β3γ2 GABAA/BzR [9]; Figure 17, read-out: Binding data Ki α6",> 2000 nM
same,Ki,"α2β3γ2 GABAA/BzR [10]; Figure 17, read-out: Binding data Ki α2",> 2000 nM
same,Ki,"α3β3γ2 GABAA/BzR [11]; Figure 4, read-out: Ki α3",> 2000 nM
same,Ki,"α1β3γ2 GABAA/BzR [12]; Figure 17, read-out: Binding data Ki α1",> 2000 nM
CC(C)(C)OC(=O)c1cc2c(cn1)[nH]c1ccc(C#CC#Cc3ccc4[nH]c5cnc(C(=O)OC(C)(C)C)cc5c4c3)cc12 [43(WY-S-6)],Ki,α2β3γ2 GABAA/BzR [2]; read-out: Affinity Ki α2,1060 nM
same,Ki,α6β3γ2 GABAA/BzR [4]; read-out: Affinity Ki α6,5000 nM
same,Ki,α4β3γ2 GABAA/BzR [6]; read-out: Affinity Ki α4,5000 nM
same,Ki,α5β3γ2 GABAA/BzR [13]; read-out: Affinity Ki α5,5000 nM
same,Ki,α1β3γ2 GABAA/BzR [7]; read-out: Affinity Ki α1,120 nM
same,Ki,α3β3γ2 GABAA/BzR [11]; read-out: Affinity Ki α3,3940 nM
same,Ki,α1β3γ2 GABAA/BzR [12]; binding to α1 subtypes,120 nM
CC(C)(C)OC(=O)c1cc2c(cn1)[nH]c1ccc(-c3ccco3)cc12 [WYS13],Ki,α2β3γ2 GABAA/BzR [2]; read-out: Affinity Ki α2,13 nM
same,Ki,α6β3γ2 GABAA/BzR [4]; read-out: Affinity Ki α6,5000 nM
same,Ki,α5β3γ2 GABAA/BzR [5]; read-out: Ki α5,163 nM
same,Ki,α5β3γ2 GABAA/BzR [13]; read-out: Affinity Ki α5,163 nM
same,Ki,α1β3γ2 GABAA/BzR [7]; read-out: Affinity Ki α1,2.4 nM
same,Ki,α3β3γ2 GABAA/BzR [8]; read-out: Ki α3,27.5 nM
same,Ki,α6β3γ2 GABAA/BzR [9]; read-out: Ki α6,5000 nM
same,Ki,α2β3γ2 GABAA/BzR [10]; read-out: Ki α2,13 nM
same,Ki,α3β3γ2 GABAA/BzR [11]; read-out: Affinity Ki α3,27.5 nM
same,Ki,α1β3γ2 GABAA/BzR [12]; read-out: Ki α1,2.44 nM
CCOC(=O)c1ncn2c1CN(C)C(=O)c1cc(F)ccc1-2 [Ro15-1788],modulation,[1],antagonist
Cc1ccc(-c2nc3ccc(C)cn3c2CC(=O)N(C)C)cc1 [zolpidem],modulation,[1]; Supplement Table 1,agonist
CC(C)(C)OC(=O)c1cc2c(cn1)[nH]c1ccc(C(C)(C)C)cc12 [CM-A82a],Ki,α2β3γ2 GABAA/BzR [2]; read-out: Affinity Ki α2,8.93 nM
same,Ki,α4β3γ2 GABAA/BzR [3],1000 nM
same,Ki,α5β3γ2 GABAA/BzR [5]; Ki α5,7.49 nM
same,Ki,α5β3γ2 GABAA/BzR [5]; read-out: Ki α5,7.49 nM
same,Ki,α5β3γ2 GABAA/BzR [13]; read-out: Affinity Ki α5,7.49 nM
same,Ki,α1β3γ2 GABAA/BzR [7]; read-out: Affinity Ki α1,2.78 nM
same,Ki,α3β3γ2 GABAA/BzR [8]; Ki α3,24.5 nM
same,Ki,α3β3γ2 GABAA/BzR [8]; read-out: Ki α3,24.5 nM
same,Ki,α6β3γ2 GABAA/BzR [9]; Ki α6,1000 nM
same,Ki,α2β3γ2 GABAA/BzR [10]; Ki α2,8.93 nM
same,Ki,α2β3γ2 GABAA/BzR [10]; read-out: Ki α2,8.93 nM
same,Ki,α3β3γ2 GABAA/BzR [11]; read-out: Affinity Ki α3,24.5 nM
same,Ki,α1β3γ2 GABAA/BzR [12]; Ki α1,2.78 nM
same,Ki,α1β3γ2 GABAA/BzR [12]; read-out: Ki α1,2.78 nM
O=C(OCC(F)(F)F)c1cc2c(cn1)[nH]c1ccc(-c3ccccc3)cc12 [38(WYB29-2)],Ki,α2β3γ2 GABAA/BzR [2]; read-out: Affinity Ki α2,137 nM
same,Ki,α6β3γ2 GABAA/BzR [4]; read-out: Affinity Ki α6,2000 nM
same,Ki,α4β3γ2 GABAA/BzR [6]; read-out: Affinity Ki α4,2000 nM
same,Ki,α5β3γ2 GABAA/BzR [13]; read-out: Affinity Ki α5,299 nM
same,Ki,α3β3γ2 GABAA/BzR [11]; read-out: Affinity Ki α3,125 nM
C#CC#Cc1ccc2c(c1)C(=O)N1CCC[C@H]1c1c(C(=O)OCC)ncn1-2 [compound 8],Ki,"α2β3γ2 GABAA/BzR [2]; Figure 4, read-out: Ki α2",> 1000 nM
same,Ki,"α6β3γ2 GABAA/BzR [4]; Figure 4, read-out: Ki α6",> 1000 nM
same,Ki,"α4β3γ2 GABAA/BzR [6]; Figure 4, read-out: Ki α4",> 1000 nM
same,Ki,"α5β3γ2 GABAA/BzR [13]; Figure 4, read-out: Ki α5",64 nM
same,Ki,"α1β3γ2 GABAA/BzR [7]; Figure 4, read-out: Ki α1",> 1000 nM
same,Ki,"α3β3γ2 GABAA/BzR [11]; Figure 4, read-out: Ki α3",> 1000 nM
Ro15-4513 [reference compound],Ki,α5β3γ2 GABAA/BzR [5]; read-out: Ki α5,0.26 nM
same,modulation,[1],inverse agonist
same,Ki,α2β3γ2 GABAA/BzR [10]; read-out: Ki α2,2.6 nM
"Cc1nnc2ccc(-c3cccc(C(F)(F)F)c3)nn12 [CL-218,872]",modulation,[1]; Supplement Table 1,partial agonist
"CCc1c(C(=O)OC)ncc2[nH]c3cc(OC)c(OC)cc3c12 [DMCM, reference compound]",Ki,α5β3γ2 GABAA/BzR [5]; read-out: Ki α5,1.04 nM
same,modulation,[1],inverse agonist
same,Ki,α3β3γ2 GABAA/BzR [8]; read-out: Ki α3,4 nM
same,Ki,α6β3γ2 GABAA/BzR [9]; read-out: Ki α6,134 nM
same,Ki,α2β3γ2 GABAA/BzR [10]; read-out: Ki α2,8.29 nM
same,Ki,α1β3γ2 GABAA/BzR [12]; read-out: Ki α1,5.69 nM
CC(C)(C)OC(=O)c1cc2c(cn1)[nH]c1ccc(C#Cc3ccc4[nH]c5cnc(C(=O)OC(C)(C)C)cc5c4c3)cc12 [42(WY-S-2)],Ki,α2β3γ2 GABAA/BzR [2]; read-out: Affinity Ki α2,124 nM
same,Ki,α6β3γ2 GABAA/BzR [4]; read-out: Affinity Ki α6,> 4000 nM
same,Ki,α4β3γ2 GABAA/BzR [6]; read-out: Affinity Ki α4,> 300 nM
same,Ki,α5β3γ2 GABAA/BzR [13]; read-out: Affinity Ki α5,> 300 nM
same,Ki,α1β3γ2 GABAA/BzR [7]; read-out: Affinity Ki α1,30 nM
same,Ki,α3β3γ2 GABAA/BzR [11]; read-out: Affinity Ki α3,100 nM
same,Ki,α1β3γ2 GABAA/BzR [12]; binding to α1 subtypes,30 nM
C#Cc1ccc2[nH]c3cnc(C(=O)OC(C)(C)C)cc3c2c1 [WY-A-99-2 (WYS8)],Ki,α4β3γ2 GABAA/BzR [3],2000 nM
same,Ki,"α6β3γ2 GABAA/BzR [4]; Figure 33, αxβ3γ2, read-out: Affinity Ki α6",1980 nM
same,Ki,α5β3γ2 GABAA/BzR [5]; Ki α5,208 nM and 51 nM
same,Ki,"α5β3γ2 GABAA/BzR [13]; Figure 33, αxβ3γ2, read-out: Affinity Ki α5",1470 nM
same,Ki,"α1β3γ2 GABAA/BzR [7]; Figure 33, αxβ3γ2, read-out: Affinity Ki α1",0.972 nM
same,pharmacological properties compared with classical benzodiazepine receptor antagonists,[1],near GABA neutral antagonists
same,Ki,α3β3γ2 GABAA/BzR [8]; Ki α3,1.63 nM
same,Ki,α6β3γ2 GABAA/BzR [9]; Ki α6,1980 nM
